Measured values: PMC7366380, “Discovery of a Potent and Selective Covalent Inhibitor and Activity-Based Probe for the Deubiquitylating Enzyme UCHL1, with Antifibrotic Activity” (Journal of the American Chemical Society, 2020)
Several values for one entry are separate records, joined by “and”; a condition that tells them apart may be missing. Equal entries are not always repeated.

What was measured:
Experiment in all cases: In-cell proteome-wide competitive ABPP, HEK293: other DUBs and proteins
[1] = target: T1, DUBs and other proteins in HEK293 cells (Homo sapiens, UniProt P51665); settings: replicates A-C; for Log2 reporter intensity values: PSMD7: competition with ABP 2, DMSO substract (FC); for Log2 reporter intensity values: PSMD7, DMSO subtracted
T1 sequence (P51665 1-324): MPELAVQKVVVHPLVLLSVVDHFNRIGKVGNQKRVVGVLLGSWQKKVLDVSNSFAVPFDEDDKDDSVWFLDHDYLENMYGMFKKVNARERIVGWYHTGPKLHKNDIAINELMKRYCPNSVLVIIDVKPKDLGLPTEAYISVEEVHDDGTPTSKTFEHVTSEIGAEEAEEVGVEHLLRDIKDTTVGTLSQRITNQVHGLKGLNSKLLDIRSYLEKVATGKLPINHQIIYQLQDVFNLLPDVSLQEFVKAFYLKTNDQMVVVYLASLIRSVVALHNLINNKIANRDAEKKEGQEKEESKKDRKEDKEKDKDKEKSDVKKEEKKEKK

[2] = target: T2, DUBs and other proteins in HEK293 cells (Homo sapiens, UniProt Q86UV5); settings: for Log2 reporter intensity values: USP48: competition with ABP 2, DMSO substract (FC), replicates A-B; for Log2 reporter intensity values: USP48, DMSO subtracted
T2 sequence (Q86UV5 1-1035): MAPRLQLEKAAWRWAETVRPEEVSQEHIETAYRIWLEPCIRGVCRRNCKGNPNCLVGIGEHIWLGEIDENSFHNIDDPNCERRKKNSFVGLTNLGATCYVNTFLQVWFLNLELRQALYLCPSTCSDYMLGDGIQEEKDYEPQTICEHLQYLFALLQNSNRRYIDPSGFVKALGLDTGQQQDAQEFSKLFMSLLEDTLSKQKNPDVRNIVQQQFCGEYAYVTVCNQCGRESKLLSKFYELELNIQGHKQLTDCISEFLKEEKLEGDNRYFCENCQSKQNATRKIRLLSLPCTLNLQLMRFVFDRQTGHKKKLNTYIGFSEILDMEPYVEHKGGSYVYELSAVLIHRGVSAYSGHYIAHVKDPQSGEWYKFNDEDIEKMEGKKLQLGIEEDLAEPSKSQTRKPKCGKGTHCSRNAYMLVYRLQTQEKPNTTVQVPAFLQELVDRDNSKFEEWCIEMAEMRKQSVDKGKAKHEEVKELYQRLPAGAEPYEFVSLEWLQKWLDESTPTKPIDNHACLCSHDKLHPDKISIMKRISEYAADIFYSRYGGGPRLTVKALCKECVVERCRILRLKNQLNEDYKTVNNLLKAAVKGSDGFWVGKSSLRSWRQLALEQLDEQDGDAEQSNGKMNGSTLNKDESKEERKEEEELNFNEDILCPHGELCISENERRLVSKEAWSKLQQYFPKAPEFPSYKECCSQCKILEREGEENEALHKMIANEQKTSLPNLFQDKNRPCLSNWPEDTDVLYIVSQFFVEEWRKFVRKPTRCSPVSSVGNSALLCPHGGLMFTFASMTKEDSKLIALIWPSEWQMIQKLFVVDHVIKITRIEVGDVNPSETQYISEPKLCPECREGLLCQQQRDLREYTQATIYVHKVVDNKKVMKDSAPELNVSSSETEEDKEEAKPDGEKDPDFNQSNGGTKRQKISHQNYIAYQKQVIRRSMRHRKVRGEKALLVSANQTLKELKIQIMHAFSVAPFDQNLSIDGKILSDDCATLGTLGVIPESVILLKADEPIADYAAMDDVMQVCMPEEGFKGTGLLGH

[3] = target: DUBs and other proteins in HEK293 cells (Homo sapiens, UniProt P54578); settings: replicates A-C; for Log2 reporter intensity values: USP14: competition with ABP 2, DMSO substract (FC); for Log2 reporter intensity values: USP14, DMSO subtracted
[4] = target: DUBs and other proteins in HEK293 cells (Homo sapiens, UniProt Q93008); settings: replicates A-C; for Log2 reporter intensity values: USP9X;USP9Y: competition with ABP 2, DMSO substract (FC); for Log2 reporter intensity values: USP9X;USP9Y, DMSO subtracted
[5] = target: DUBs and other proteins in HEK293 cells (Homo sapiens, UniProt Q9UPU5); settings: replicates A-C; for Log2 reporter intensity values: USP24: competition with ABP 2, DMSO substract (FC); for Log2 reporter intensity values: USP24, DMSO subtracted
[6] = target: DUBs and other proteins in HEK293 cells (Homo sapiens, UniProt Q96FW1); settings: replicates A-C; for Log2 reporter intensity values: OTUB1: competition with ABP 2, DMSO substract (FC); for Log2 reporter intensity values: OTUB1, DMSO subtracted
[7] = target: DUBs and other proteins in HEK293 cells (Homo sapiens, UniProt O00487); settings: replicates A-C; for Log2 reporter intensity values: PSMD14: competition with ABP 2, DMSO substract (FC); for Log2 reporter intensity values: PSMD14, DMSO subtracted
Sequence of DUBs and other proteins in HEK293 cells (Homo sapiens, UniProt O00487) (O00487 whole entry): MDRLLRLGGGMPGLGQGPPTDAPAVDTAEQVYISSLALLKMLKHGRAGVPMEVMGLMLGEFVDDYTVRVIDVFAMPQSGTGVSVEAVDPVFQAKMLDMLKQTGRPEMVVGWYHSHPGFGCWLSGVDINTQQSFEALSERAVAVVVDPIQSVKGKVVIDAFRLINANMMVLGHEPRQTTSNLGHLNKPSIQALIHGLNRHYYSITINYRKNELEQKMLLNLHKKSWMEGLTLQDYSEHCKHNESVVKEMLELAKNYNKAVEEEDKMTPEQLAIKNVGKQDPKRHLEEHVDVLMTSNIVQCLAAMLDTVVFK

Sequence of DUBs and other proteins in HEK293 cells (Homo sapiens, UniProt P54578) (P54578 whole entry): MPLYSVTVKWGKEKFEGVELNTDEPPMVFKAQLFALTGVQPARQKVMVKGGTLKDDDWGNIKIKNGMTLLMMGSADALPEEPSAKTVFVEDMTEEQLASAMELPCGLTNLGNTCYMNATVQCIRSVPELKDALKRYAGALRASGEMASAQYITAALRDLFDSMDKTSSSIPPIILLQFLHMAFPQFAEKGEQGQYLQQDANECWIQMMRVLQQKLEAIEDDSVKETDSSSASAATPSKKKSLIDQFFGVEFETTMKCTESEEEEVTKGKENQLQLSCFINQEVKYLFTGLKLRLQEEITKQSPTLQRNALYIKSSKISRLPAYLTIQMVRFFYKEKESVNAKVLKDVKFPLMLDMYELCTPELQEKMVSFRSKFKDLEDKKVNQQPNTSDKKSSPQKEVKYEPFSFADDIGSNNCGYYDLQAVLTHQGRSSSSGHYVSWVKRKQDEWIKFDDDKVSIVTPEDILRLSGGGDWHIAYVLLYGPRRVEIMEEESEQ
Sequence of DUBs and other proteins in HEK293 cells (Homo sapiens, UniProt Q93008) (Q93008 whole entry): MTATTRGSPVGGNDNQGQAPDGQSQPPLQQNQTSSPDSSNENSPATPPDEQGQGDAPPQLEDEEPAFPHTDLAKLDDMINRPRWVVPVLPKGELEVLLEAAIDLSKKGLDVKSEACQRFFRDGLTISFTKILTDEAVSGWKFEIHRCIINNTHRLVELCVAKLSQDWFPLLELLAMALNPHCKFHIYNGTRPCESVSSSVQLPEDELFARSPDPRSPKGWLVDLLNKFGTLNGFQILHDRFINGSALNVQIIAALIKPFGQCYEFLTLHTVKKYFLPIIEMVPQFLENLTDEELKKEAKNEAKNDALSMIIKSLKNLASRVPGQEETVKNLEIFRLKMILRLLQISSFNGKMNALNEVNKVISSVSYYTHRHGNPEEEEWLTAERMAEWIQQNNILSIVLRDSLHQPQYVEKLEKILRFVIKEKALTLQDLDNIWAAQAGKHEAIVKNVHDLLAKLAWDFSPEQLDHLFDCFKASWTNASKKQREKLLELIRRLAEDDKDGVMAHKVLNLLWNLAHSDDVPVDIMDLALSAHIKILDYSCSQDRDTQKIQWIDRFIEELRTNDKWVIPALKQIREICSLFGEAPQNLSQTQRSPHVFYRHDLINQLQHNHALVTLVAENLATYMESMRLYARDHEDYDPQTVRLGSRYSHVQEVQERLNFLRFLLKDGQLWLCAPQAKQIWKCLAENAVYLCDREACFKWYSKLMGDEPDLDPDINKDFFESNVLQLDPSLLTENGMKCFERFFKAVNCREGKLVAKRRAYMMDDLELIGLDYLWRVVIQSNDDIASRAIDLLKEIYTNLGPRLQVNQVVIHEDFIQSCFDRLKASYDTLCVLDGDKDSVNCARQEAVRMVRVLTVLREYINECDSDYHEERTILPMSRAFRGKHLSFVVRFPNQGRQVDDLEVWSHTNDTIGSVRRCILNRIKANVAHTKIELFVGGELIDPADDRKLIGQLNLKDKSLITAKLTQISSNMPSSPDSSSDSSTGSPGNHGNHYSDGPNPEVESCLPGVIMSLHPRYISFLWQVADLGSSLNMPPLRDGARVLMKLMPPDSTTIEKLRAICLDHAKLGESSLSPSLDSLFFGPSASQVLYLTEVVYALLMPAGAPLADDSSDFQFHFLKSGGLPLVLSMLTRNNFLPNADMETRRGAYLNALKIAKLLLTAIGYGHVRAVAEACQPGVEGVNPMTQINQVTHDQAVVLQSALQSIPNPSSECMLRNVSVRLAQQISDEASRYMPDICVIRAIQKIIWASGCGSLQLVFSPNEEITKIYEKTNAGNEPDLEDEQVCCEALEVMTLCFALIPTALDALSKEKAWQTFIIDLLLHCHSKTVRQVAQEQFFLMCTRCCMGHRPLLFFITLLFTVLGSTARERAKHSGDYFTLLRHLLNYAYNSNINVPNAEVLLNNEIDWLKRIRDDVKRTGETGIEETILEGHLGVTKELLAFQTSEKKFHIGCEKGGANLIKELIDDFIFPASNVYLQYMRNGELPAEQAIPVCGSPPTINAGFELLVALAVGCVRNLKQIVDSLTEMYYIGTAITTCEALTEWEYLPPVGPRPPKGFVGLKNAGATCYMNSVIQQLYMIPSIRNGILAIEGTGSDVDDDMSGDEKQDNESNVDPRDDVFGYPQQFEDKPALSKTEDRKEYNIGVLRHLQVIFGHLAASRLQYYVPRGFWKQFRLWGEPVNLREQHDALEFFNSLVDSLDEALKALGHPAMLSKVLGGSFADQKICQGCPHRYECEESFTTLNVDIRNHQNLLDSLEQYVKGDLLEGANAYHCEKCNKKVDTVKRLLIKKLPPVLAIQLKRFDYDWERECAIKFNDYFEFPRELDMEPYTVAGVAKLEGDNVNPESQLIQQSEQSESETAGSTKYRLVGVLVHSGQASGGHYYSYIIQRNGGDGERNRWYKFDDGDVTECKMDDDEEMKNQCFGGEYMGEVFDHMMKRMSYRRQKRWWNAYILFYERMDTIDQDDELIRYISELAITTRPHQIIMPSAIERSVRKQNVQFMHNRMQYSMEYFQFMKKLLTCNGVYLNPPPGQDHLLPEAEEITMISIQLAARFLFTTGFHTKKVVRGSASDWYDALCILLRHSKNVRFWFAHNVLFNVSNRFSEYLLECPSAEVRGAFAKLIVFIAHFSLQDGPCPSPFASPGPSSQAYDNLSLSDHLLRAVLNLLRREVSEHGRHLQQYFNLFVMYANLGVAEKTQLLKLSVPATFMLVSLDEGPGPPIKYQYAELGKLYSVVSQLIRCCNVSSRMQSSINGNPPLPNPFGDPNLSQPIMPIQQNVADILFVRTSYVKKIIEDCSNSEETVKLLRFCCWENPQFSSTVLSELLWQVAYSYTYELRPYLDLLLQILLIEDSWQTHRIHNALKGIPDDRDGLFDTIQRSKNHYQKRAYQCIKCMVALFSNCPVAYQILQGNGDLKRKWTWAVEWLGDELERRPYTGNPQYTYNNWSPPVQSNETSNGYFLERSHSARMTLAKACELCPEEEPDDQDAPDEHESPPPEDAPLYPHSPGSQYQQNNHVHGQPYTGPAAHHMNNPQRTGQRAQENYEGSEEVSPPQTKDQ
Sequence of DUBs and other proteins in HEK293 cells (Homo sapiens, UniProt Q96FW1) (Q96FW1 whole entry): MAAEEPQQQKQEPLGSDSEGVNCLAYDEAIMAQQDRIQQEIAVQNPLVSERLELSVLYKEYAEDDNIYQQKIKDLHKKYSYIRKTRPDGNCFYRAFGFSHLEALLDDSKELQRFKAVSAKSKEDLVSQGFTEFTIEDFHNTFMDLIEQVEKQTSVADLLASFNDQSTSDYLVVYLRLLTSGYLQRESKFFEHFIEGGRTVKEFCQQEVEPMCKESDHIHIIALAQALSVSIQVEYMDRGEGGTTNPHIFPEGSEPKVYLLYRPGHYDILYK

N#CN1CCC[C@@H]1C(=O)N1CCc2c(-c3c[nH]c4ncccc34)cccc21 [Compound 3]
Log2 reporter intensity values: PSMD7 ([1]; 3 at 1 μM): 1.2 and 1.081 and 1.198 | Log2 reporter intensity values: PSMD7 ([1]; 3 at 4 μM): 1.083 and 1.233 and 0.9957 | Log2 reporter intensity values ([1]; 3_1 μM): 0.1973 and 0.07834 and 0.1956 | Log2 reporter intensity values ([1]; 3_4 μM): 0.08024 and 0.2301 and -0.006858 | Log2 reporter intensity values ([1]; 3 at 1 μM): 0.2629 and 0.1122 and 0.2608 | Log2 reporter intensity values ([1]; 3 at 4 μM): 0.1148 and 0.3017 and -0.006207 | Log2 reporter intensity values: USP48 ([2]; 3 at 1 μM): 1.063 and 0.8844 | Log2 reporter intensity values: USP48 ([2]; 3 at 4 μM): 0.8635 and 1.157 | Log2 reporter intensity values ([2]; 3_1 μM, replicates A-B (C NaN)): 0.06169 and -0.1169 | Log2 reporter intensity values ([2]; 3_4 μM, replicates A-B (C NaN)): -0.1378 and 0.156 | Log2 reporter intensity values ([2]; 3 at 1 μM, replicates A-C): 0.08809 and -0.1773 | Log2 reporter intensity values ([2]; 3 at 4 μM, replicates A-C): -0.2118 and 0.2108 | Log2 reporter intensity values: USP14 ([3]; 3 at 1 μM): 1.142 and 1.077 and 1.079 | Log2 reporter intensity values: USP14 ([3]; 3 at 4 μM): 1.079 and 1.198 and 1.16 | Log2 reporter intensity values ([3]; 3_1 μM): 0.1415 and 0.07672 and 0.07886 | Log2 reporter intensity values ([3]; 3_4 μM): 0.07915 and 0.1978 and 0.16 | Log2 reporter intensity values ([3]; 3 at 1 μM): 0.1912 and 0.1069 and 0.1098 | Log2 reporter intensity values ([3]; 3 at 4 μM): 0.1102 and 0.2606 and 0.2145 | Log2 reporter intensity values: USP9X;USP9Y ([4]; 3 at 1 μM): 1.02 and 0.9178 and 0.9768 | Log2 reporter intensity values: USP9X;USP9Y ([4]; 3 at 4 μM): 0.9914 and 0.9828 and 0.9945 | Log2 reporter intensity values ([4]; 3_1 μM): 0.02022 and -0.08228 and -0.02322 | Log2 reporter intensity values ([4]; 3_4 μM): -0.008621 and -0.01719 and -0.00552 | Log2 reporter intensity values ([4]; 3 at 1 μM): 0.02892 and -0.1238 and -0.03385 | Log2 reporter intensity values ([4]; 3 at 4 μM): -0.01245 and -0.02497 and -0.007941 | Log2 reporter intensity values: USP24 ([5]; 3 at 1 μM): 1.062 and 1.01 and 1.397 | Log2 reporter intensity values: USP24 ([5]; 3 at 4 μM): 1.531 and 1.061 and 0.663 | Log2 reporter intensity values ([5]; 3_1 μM): 0.05897 and 0.007121 and 0.3935 | Log2 reporter intensity values ([5]; 3_4 μM): 0.5273 and 0.05764 and -0.3403 | Log2 reporter intensity values ([5]; 3 at 1 μM): 0.08723 and 0.01505 and 0.4822 | Log2 reporter intensity values ([5]; 3 at 4 μM): 0.6141 and 0.08543 and -0.5928 | Log2 reporter intensity values: OTUB1 ([6]; 3 at 1 μM): 0.9728 and 1.005 and 0.986 | Log2 reporter intensity values: OTUB1 ([6]; 3 at 4 μM): 1.016 and 1.059 and 1.053 | Log2 reporter intensity values ([6]; 3_1 μM): -0.02736 and 0.004799 and -0.01417 | Log2 reporter intensity values ([6]; 3_4 μM): 0.01602 and 0.05888 and 0.05243 | Log2 reporter intensity values ([6]; 3 at 1 μM): -0.03984 and 0.007079 and -0.02041 | Log2 reporter intensity values ([6]; 3 at 4 μM): 0.0231 and 0.08271 and 0.07389 | Log2 reporter intensity values: PSMD14 ([7]; 3 at 1 μM): 1.063 and 1.033 and 1.055 | Log2 reporter intensity values: PSMD14 ([7]; 3 at 4 μM): 1.048 and 1.127 and 1.122 | Log2 reporter intensity values ([7]; 3_1 μM): 0.06036 and 0.03045 and 0.0523 | Log2 reporter intensity values ([7]; 3_4 μM): 0.04582 and 0.1244 and 0.1197 | Log2 reporter intensity values ([7]; 3 at 1 μM): 0.08818 and 0.04699 and 0.07719 | Log2 reporter intensity values ([7]; 3 at 4 μM): 0.06829 and 0.1725 and 0.1665
